Tested on: DYT1 knockin (Tor1a^delGAG/+) murine embryonic fibroblasts (MEFs)
Test: Untargeted LC/MS/MS proteomics of EVs from DYT1 MEFs exposed 24 hours to drug, compared with untreated DYT1 (Het) MEFs
Type: cell-based, mouse
Description: Methods for isolation and purification of exosomes and extracellular vesicles (EV) were extensively reviewed. Experiments were performed to arrive at a robust and reproducible protocol. The protocol used herein is that set forth in Théry et al, 2006, which is incorporated by reference for it teaching of this protocol. This protocol involves depleting serum-derived EVs from cell culture media by overnight ultracentrifugation and exchanging media for 1% FBS EV-depleted media. Media is then collected from cells following a 24-hour conditioning period and EVs are isolated by 18-hour ultracentrifugation at 100,000 g (FIG. 1A).
EVs were isolated from media of cultured murine embryonic fibroblasts (MEFs) prepared in-house according to protocols described by Xu 2005 from DYT1 knockin mice (Tor1a^delGAG/+) (Goodchild R E, et al. (2005) Neuron. 48:923-932) and littermate wild-type (WT) controls. The cultured MEFs from the DYT1 mice were exposed for 24 hours to Ritonavir (RTV) while the MEFs from WT mice were exposed to vehicle, ISRIB, or Salubrinal (SAL). The EVs isolated from these WT cells and DYT1 were characterized by untargeted proteomics and RNA-seq to identify differentially expressed proteins and RNAs as candidate biomarkers. Experimenter and Proteomics core staff were blinded to genotype of cell cultures throughout preparation and analysis phases.
Samples were first normalized to 20 μg and spiked with undigested casein at a total of 40 fmol/μg, 80 fmol/μg, or 160 fmol/μg, then reduced with 10 mM dithiolthreitol for 30 minute at 80° C. and alkylated with 20 mM iodoacetamide for 30 minutes at room temperature. Next, the samples were supplemented with a final concentration of 1.2% phosphoric acid and 741 μL of S-Trap (Protifi) binding buffer (90% MeOH/100 mM […]). Proteins were trapped on the S-Trap, digested using 20 ng/μL sequencing grade trypsin (Promega) for 1 hour at 47° C., and eluted using 50 mM TEAB, followed by 0.2% FA, and lastly using 50% CAN/0.2% FA. All samples were then lyophilized to dryness and resuspended in 40 μL 1% TFA/2% acetonitrile containing 12.5 fmol/μL yeast alcohol dehydrogenase (ADH_YEAST). A QC Pool was created from 3 uL of each sample. All QC Pools were run periodically throughout the acquisition period.
Quantitative LC/MS/MS was performed on 2 μL of each sample, using a nanoAcquity UPLC system (Waters Corp) coupled to a Thermo Orbitrap Fusion Lumos high resolution accurate mass tandem mass spectrometer (Thermo) via a nanoelectrospray ionization source. Briefly, the sample was first trapped on a Symmetry C18 20 mm×180 μm trapping column (5 μL/min at 99.9/0.1 v/v water/acetonitrile), after which the analytical separation was performed using a 1.8 μm Acquity HSS T3 C18 75 μm×250 mm column (Waters Corp.) with a 90 minute linear gradient of 5% to 30% acetonitrile with 0.1% formic acid at a flow rate of 400 nanoliters/minute (nL/min) with a column temperature of 55° C. Data collection on the Fusion Lumos mass spectrometer was performed in a data-dependent acquisition (DDA) mode of acquisition with a r=120,000 (@ m/z 200) full MS scan from m/z 375-1500 with a target AGC value of 2e5 ions. MS/MS scans were acquired at Rapid scan rate (Ion Trap) with an AGC target of 5e3 ions and a max injection time of 100 ms. The total cycle time for MS and MS/MS scans was 2 seconds. A 20 second dynamic exclusion was employed to increase depth of coverage. The total analysis cycle time for each sample injection was approximately 2 hours.

CC(C)c1nc(CN(C)C(=O)N[C@H](C(=O)N[C@@H](Cc2ccccc2)C[C@H](O)[C@H](Cc2ccccc2)NC(=O)OCc2cncs2)C(C)C)cs1 [RTV, Ritonavir]
8.93: Abs Z Score Sum (Geno + RTV) (EV protein Vapa (Q9WV55))
5.45: Abs Z Score Sum (Geno + RTV) (EV protein Ssb (P32067))
12.21: Abs Z Score Sum (Geno + RTV) (EV protein Ssbp1 (Q9CYR0))
yes: RTV Direction Opposite dE? (EV protein Ssb (P32067)) | RTV Direction Opposite dE? (EV protein Ssbp1 (Q9CYR0)) | RTV Direction Opposite dE? (EV protein Svep1 (A2A0A0)) | RTV Direction Opposite dE? (EV protein Tra2b (P62996)) | RTV Direction Opposite dE? (EV protein Vapa (Q9WV55)) | Direction Opposite dE? (EV protein: 26S proteasome non-ATPase regulatory subunit 8) | Direction Opposite dE? (EV protein: 60S [?] subunit biogenesis protein [?] homolog) | Direction Opposite dE? (EV protein: 60S ribosomal protein [?]) | Direction Opposite dE? (EV protein: 116 kDa [?] small nuclear ribonucleoprotein component) | Direction Opposite dE? (EV protein: AP-3 complex subunit [?]) | Direction Opposite dE? (EV protein: ATP-dependent RNA helicase [?]) | Direction Opposite dE? (EV protein: Acyl-protein thioesterase 2) | Direction Opposite dE? (EV protein: Alpha-crystallin B chain) | Direction Opposite dE? (EV protein: Anaphase-promoting complex subunit 2) | Direction Opposite dE? (EV protein: Anaphase-promoting complex subunit 4) | Direction Opposite dE? (EV protein: Anaphase-promoting complex subunit 5) | Direction Opposite dE? (EV protein: Calponin-3) | Direction Opposite dE? (EV protein: Cell [?] cycle protein [?] homolog) | Direction Opposite dE? (EV protein: Cell division cycle protein 27 homolog) | Direction Opposite dE? (EV protein: Choline transporter-like protein 1) | Direction Opposite dE? (EV protein: Coiled-coil domain-containing protein 22) | Direction Opposite dE? (EV protein: Complement C1q [?] -related protein 3) | Direction Opposite dE? (EV protein: Cullin-2) | Direction Opposite dE? (EV protein: Cullin-5) | Direction Opposite dE? (EV protein: Cullin-7) | Direction Opposite dE? (EV protein: Cytosolic purine [?] -nucleotidase) | Direction Opposite dE? (EV protein: DNA [?] (r264)) | Direction Opposite dE? (EV protein: DNA [?] licensing factor MCM4) | Direction Opposite dE? (EV protein: DNA ligase 1) | Direction Opposite dE? (EV protein: DNA replication licensing factor MCM5) | Direction Opposite dE? (EV protein: DNA replication licensing factor [?]) | Direction Opposite dE? (EV protein: DNA-directed RNA polymerase II subunit RPB1) | Direction Opposite dE? (EV protein: DNA-directed RNA polymerase II subunit RPB2) | Direction Opposite dE? (EV protein: DNA-directed RNA polymerase II subunit RPB3) | Direction Opposite dE? (EV protein: DNA-directed RNA polymerase [?] subunit RPA2) | Direction Opposite dE? (EV protein: DNA-directed RNA polymerases I, II, and III subunit RPABC3) | Direction Opposite dE? (EV protein: DNA-directed RNA polymerases I, II, and III subunit [?]) | Direction Opposite dE? (EV protein: Developmentally-regulated GTP-binding protein 2) | Direction Opposite dE? (EV protein: Double-strand-break repair protein rad21 homolog) | Direction Opposite dE? (EV protein: Dual specificity mitogen-activated protein kinase kinase 4) | Direction Opposite dE? (EV protein: Dynactin subunit 4) | Direction Opposite dE? (EV protein: E3 ubiquitin-protein ligase [?]) | Direction Opposite dE? (EV protein: Elongin-B) | Direction Opposite dE? (EV protein: Extended synaptotagmin-1) | Direction Opposite dE? (EV protein: Gamma-tubulin complex component 2) | Direction Opposite dE? (EV protein: General vesicular transport factor p115) | Direction Opposite dE? (EV protein: Glucose-6-phosphate 1-dehydrogenase [?]) | Direction Opposite dE? (EV protein: Glutathione S-transferase omega-1) | Direction Opposite dE? (EV protein: Glycosylated lysosomal membrane protein) | Direction Opposite dE? (EV protein: Golgi reassembly-stacking protein 2) | Direction Opposite dE? (EV protein: Heterogeneous nuclear ribonucleoprotein H) | Direction Opposite dE? (EV protein: Histone-arginine methyltransterase CARM1) | Direction Opposite dE? (EV protein: Immunity-related GTPase family M protein 1) | Direction Opposite dE? (EV protein: Importin-7) | Direction Opposite dE? (EV protein: Inositol monophosphate 1) | Direction Opposite dE? (EV protein: Insulin-like growth factor 1 receptor) | Direction Opposite dE? (EV protein: Integrin beta- 3) | Direction Opposite dE? (EV protein: Lupus [?] protein homolog) | Direction Opposite dE? (EV protein: Lysine-specific histone demethylase [?]) | Direction Opposite dE? (EV protein: Mediator [?] RNA polymerase II transcription subunit 23) | Direction Opposite dE? (EV protein: Metastasis-associated protein [?] (r222)) | Direction Opposite dE? (EV protein: Metastasis-associated protein [?] (r261)) | Direction Opposite dE? (EV protein: Microtubule-associated protein [?]) | Direction Opposite dE? (EV protein: N-alpha-acetyltransferase 10) | Direction Opposite dE? (EV protein: Nerine arginine-rich splicing factor [?]) | Direction Opposite dE? (EV protein: Nuclear [?] complex protein [?]) | Direction Opposite dE? (EV protein: Nuclear cap-binding protein subunit 1) | Direction Opposite dE? (EV protein: Nuclear receptor-binding protein) | Direction Opposite dE? (EV protein: NudC domain-containing protein 1) | Direction Opposite dE? (EV protein: Phospholipase D3) | Direction Opposite dE? (EV protein: Phosphoribosyl pyrophosphate synthase-associated protein 1) | Direction Opposite dE? (EV protein: Probable ubiquitin carboxyl-terminal hydrolase [?]) | Direction Opposite dE? (EV protein: Proenkephalin-A) | Direction Opposite dE? (EV protein: Protein O-GlcNAcase) | Direction Opposite dE? (EV protein: Protein RMD5 homolog A) | Direction Opposite dE? (EV protein: Protein [?] 14 homolog) | Direction Opposite dE? (EV protein: Protein [?] (r160)) | Direction Opposite dE? (EV protein: Protein disulfide-isomerase A4) | Direction Opposite dE? (EV protein: RNA-binding protein [?]) | Direction Opposite dE? (EV protein: Ran-binding protein 10) | Direction Opposite dE? (EV protein: Ras-related protein Rab-6A) | Direction Opposite dE? (EV protein: Ribosome biogenesis protein BOP1) | Direction Opposite dE? (EV protein: Ribosome production factor 2 homolog) | Direction Opposite dE? (EV protein: Serine threonine-protein phosphatase 2A 56 kDa regulatory subunit gamma isoform) | Direction Opposite dE? (EV protein: Sorting nexin-1) | Direction Opposite dE? (EV protein: Splicing factor 3B subunit 4) | Direction Opposite dE? (EV protein: Structural maintenance of [?] protein 2) | Direction Opposite dE? (EV protein: Transformer-2 protein homolog beta) | Direction Opposite dE? (EV protein: Trascriptional activator protein [?] -alpha) | Direction Opposite dE? (EV protein: Ubiquitin-conjugating enzyme [?]) | Direction Opposite dE? (EV protein: WD repeat-containing protein [?]) | Direction Opposite dE? (EV protein: [?] (r162)) | Direction Opposite dE? (EV protein: [?] -1 (r154)) | Direction Opposite dE? (EV protein: [?] -1 (r232)) | Direction Opposite dE? (EV protein: [?] -associated membrane protein-associated protein A) | Direction Opposite dE? (EV protein: [?] -promoting complex subunit 1) | Direction Opposite dE? (EV protein: [?] -related [?] -associated actin-dependent regulator [?] chromatin subfamily A member 5) | Direction Opposite dE? (EV protein: [?] complex subunit 2) | Direction Opposite dE? (EV protein: [?] kinase) | Direction Opposite dE? (EV protein: [?] membrane protein 2) | Direction Opposite dE? (EV protein: [?] myosin- [?]) | Direction Opposite dE? (EV protein: [?] repeat-containing protein 5A) | Direction Opposite dE? (EV protein: [?] ubiquitin-protein ligase [?]) | Direction Opposite dE? (EV protein: [?] von Willebrand factor type A, [?] and pentraxin domain-containing protein 1) | Direction Opposite dE? (EV protein: p21-activated protein kinase-interacting protein 1)
6.23: Abs Z Score Sum (Geno + RTV) (EV protein Spthn1 Q62261)
9.50: Abs Z Score Sum (Geno + RTV) (EV protein Tars (Q9D0R2))
5.72: Abs Z Score Sum (Geno + RTV) (EV protein Srsf7 Q8BL97)
9.02: Abs Z Score Sum (Geno + RTV) (EV protein Upf1 (Q9..))
6.02: Abs Z Score Sum (Geno + RTV) (EV protein Sptan1 (P16546))
8.62: Abs Z Score Sum (Geno + RTV) (EV protein Ube2n P61089)
12.14: Abs Z Score Sum (Geno + RTV) (EV protein Usol Q9Z1Z0)
6.63: Abs Z Score Sum (Geno + RTV) (EV protein Tra2b (P62996))

Source: patent US20230332232A1, “COMPOSITIONS AND METHODS FOR DIAGNOSING AND TREATING A DYSTONIA” (Duke University, priority 2020, published 2023)
